Assay results as given in US11091421B2, “Benzene fused heterocyclic derivative and pharmaceutical composition comprising the same” (TAIWANJ PHARMACEUTICALS CO., LTD., priority 2017, dated 2021).
Like-named read-outs stand apart in the source and are kept apart here.

Target: autotaxin (Homo sapiens, UniProt Q13822)
Experiment: Autotaxin inhibitor screening assay (phosphodiesterase activity, p-nitrophenol cleaved from bis-(p-nitrophenyl) phosphate, absorbance 410 nm)
Type: biochemical
Description: As described above, the compounds in the present disclosure have the effect of inhibiting the activity of autotaxin, and can be used as autotaxin inhibitors. One method for inhibiting activity of autotaxin in environment is administering to the environment an effective amount of the compound of Formula (I). Please refer to the following experiment, the phosphodiesterase activity of autotaxin was measured using the p-nitrophenol that is a yellow product cleaved by autotaxin from the bis-(p-nitrophenyl) phosphate. Compound samples (10 μl) were incubated with autotaxin (10 μl) in a final volume of 200 μl assay buffer (5 mM CaCl2, 50 mM Tris-HCl, pH 9.0) containing bis-(p-nitrophenyl) phosphate (BNPP) at a final concentration of 3 mM at 37° C. After 30 minutes, absorbance at 410 nm of the reacted solution was measured. The percent inhibition for each test article (TA) (compound) was determined using the following equation. % Inhibition=(O.D.vehicle−O.D.TA)/O.D.vehicle×100

[1] = pH 9, compound at 30 μM, BNPP 3 mM, pH 9.0, 37° C., 30 minutes, read-out: Inhibition

SMILES	inhibition at 30 µM [1] [%]	other results
O=C1c2ccc(O)cc2CCC1Cc1ccc(OCCOc2ccc(F)cc2F)cc1 (centres unmarked) [Compound 102]	50 to 80	–
O=C(Nc1ccc2c(c1)CC(Cc1ccc(C(=O)O)cc1)C2)OCc1ccccc1 (centres unmarked) [Compound 110]	–	inhibition at 30 µM (pH 9): 50 to 80%
O=C1c2cc(O)ccc2CC1CC1CCN(C(=O)OCc2cc(Cl)cc(Cl)c2)CC1 (centres unmarked) [Compound 117]	< 50	–
O=C(Nc1ccc(CC2CCc3cc(O)ccc3C2=O)cc1)Nc1cc(Cl)cc(Cl)c1 (centres unmarked) [Compound 118]	< 50	–
O=C1c2cc(O)ccc2CC1CC1CCN(C(=O)OCc2cc(Cl)cc(Cl)c2)CC1 (centres unmarked) [Compound 119]	–	Inhibition (compound at 30 μM, BNPP 3 mM, pH 9.0, 37° C., 30 minutes): B (50%~80% inhibition at 30 μM)
CNC(=O)c1ccc(COc2ccc3c(c2)C/C(=C\c2cc(Cl)cc(Cl)c2)C3=O)cc1 [Compound 120]	> 80	–
CS(=O)(=O)N1CCN(C(=O)c2ccc(COc3ccc4c(c3)C/C(=C\c3cc(Cl)cc(Cl)c3)C4=O)cc2)CC1 [Compound 121]	< 50	–
CS(=O)(=O)c1ccc(COc2ccc3c(c2)C/C(=C\c2cc(Cl)cc(Cl)c2)C3=O)cc1 [Compound 122]	< 50	–
CNS(=O)(=O)c1ccc(COc2ccc3c(c2)C/C(=C\c2cc(Cl)cc(Cl)c2)C3=O)cc1 [Compound 123]	< 50	–
CS(=O)(=O)Cc1ccc(COc2ccc3c(c2)C/C(=C\c2cc(Cl)cc(Cl)c2)C3=O)cc1 [Compound 124]	< 50	–

Further lines, with some results ahead:

inhibition at 30 µM [1] [%]	SMILES	other results
> 80	CS(=O)(=O)NC(=O)c1ccc(COc2ccc3c(c2)C/C(=C\c2cc(Cl)cc(Cl)c2)C3=O)cc1 [Compound 125]	–
< 50	CS(=O)(=O)c1ccc(COc2ccc3c(c2)C/C(=C\c2ccc(F)c(Cl)c2)C3=O)cc1 [Compound 126]	–
50 to 80	CONC(=O)c1ccc(COc2ccc3c(c2)C/C(=C\c2cc(Cl)cc(Cl)c2)C3=O)cc1 [Compound 127]	–
50 to 80	O=C(NO)c1ccc(COc2ccc3c(c2)C/C(=C\c2cc(Cl)cc(Cl)c2)C3=O)cc1 [Compound 128]	–
50 to 80	O=C(O)c1ccc(COc2ccc3c(c2)C/C(=C\c2cc(Cl)cc(C(F)(F)F)c2)C3=O)cc1 [Compound 129]	–
> 80	O=C(O)Cc1ccc(COc2ccc3c(c2)C/C(=C\c2cc(Cl)cc(Cl)c2)C3=O)cc1 [Compound 130]	–
> 80	O=C(O)COc1ccc(COc2ccc3c(c2)C/C(=C\c2cc(Cl)cc(Cl)c2)C3=O)cc1 [Compound 131]	–
< 50	COC(=O)c1ccc(COc2ccc3c(c2)C/C(=C\c2cc(Cl)cc(Cl)c2)C3=O)cc1 [Compound 132]	–
50 to 80	O=C(O)c1ccc(COc2ccc3c(c2)C/C(=C\c2cc(Cl)cc(Cl)c2)C3O)cc1 (centres unmarked) [Compound 133]	–
> 80	O=C(O)c1ccc(COc2ccc3c(c2)CC(Cc2cc(Cl)cc(Cl)c2)C3=O)cc1 (centres unmarked) [Compound 134]	–
